Results on 22 compounds are retold here after ChEMBL document CHEMBL4622982, “Discovery and Biological Evaluation of a Novel Highly Potent Selective Butyrylcholinsterase Inhibitor” (J Med Chem, 2020).

Active and inactive are the calls of the source. No cut-off for these calls is given here.

Data set [1] has as its system Mus musculus. The experiment in a line: Improvement in cognition in ICR mouse model of Abeta(1-42)-induced cognition-impairment assessed as improvement in trajectories to platform at 15 mg/kg, po dosed from days 3 to 14 by Morris water maze test. It is filed as functional, organism-based.
Data set [2] relates to Mus musculus. Description: Improvement in cognition in ICR mouse model of Abeta(1-42)-induced cognition-impairment assessed as spontaneous alternation performance level at 15 mg/kg, po dosed from days 3 to 14 and measured on day 15 by Y maze test (reference value: 34.43%). The format is functional.
Data set [3] concerns Mus musculus. The experiment in a line: Reduction in the Abeta(1-42) peptide level in ICR mouse model of Abeta(1-42)-induced cognition-impairment at 15 mg/kg, po dosed from days 3 to 14 by ELISA relative to control. It is filed as functional. Also on record: scale not given: the % may be the effect or the level left.
Data set [4] concerns Mus musculus. Description: Improvement in cognition in ICR mouse model of Abeta(1-42)-induced cognition-impairment assessed as escape latency time at 15 mg/kg, po dosed from days 3 to 14 by Morris water maze test (reference value: 48.9 secs). It is filed as functional.
For data set [5], the target named is Cholinesterase (Equus caballus) (UniProt P81908). The experiment in a line: Inhibition of equine serum BChE at 10 uM pre-incubated for 5 mins before butyrylthiocholine iodide substrate addition and measured after 2 mins.
Sequence of Cholinesterase (Equus caballus) (P81908 whole entry): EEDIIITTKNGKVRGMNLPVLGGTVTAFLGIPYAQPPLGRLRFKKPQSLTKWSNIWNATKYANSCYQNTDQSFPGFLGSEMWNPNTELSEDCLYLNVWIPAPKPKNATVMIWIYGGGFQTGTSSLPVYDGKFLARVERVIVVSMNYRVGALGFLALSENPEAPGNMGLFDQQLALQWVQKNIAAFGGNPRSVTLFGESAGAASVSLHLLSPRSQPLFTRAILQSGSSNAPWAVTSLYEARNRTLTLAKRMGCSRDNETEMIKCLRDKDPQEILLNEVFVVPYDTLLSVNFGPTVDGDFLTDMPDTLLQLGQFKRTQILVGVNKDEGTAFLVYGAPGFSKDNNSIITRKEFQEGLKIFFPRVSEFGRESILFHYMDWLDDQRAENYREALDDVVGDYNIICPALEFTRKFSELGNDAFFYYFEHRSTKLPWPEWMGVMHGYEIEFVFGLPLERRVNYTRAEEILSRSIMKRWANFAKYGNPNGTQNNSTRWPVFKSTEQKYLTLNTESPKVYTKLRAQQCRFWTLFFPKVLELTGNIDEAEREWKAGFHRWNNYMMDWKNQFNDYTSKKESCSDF
For data set [6], the target named is Acetylcholinesterase (Electrophorus electricus) (UniProt O42275). The experiment in a line: Inhibition of Electrophorus electricus AChE at 10 uM pre-incubated for 5 mins before acetylthiocholine iodide substrate addition and measured after 2 mins.
Sequence of Acetylcholinesterase (Electrophorus electricus) (O42275 24-633 limits assumed): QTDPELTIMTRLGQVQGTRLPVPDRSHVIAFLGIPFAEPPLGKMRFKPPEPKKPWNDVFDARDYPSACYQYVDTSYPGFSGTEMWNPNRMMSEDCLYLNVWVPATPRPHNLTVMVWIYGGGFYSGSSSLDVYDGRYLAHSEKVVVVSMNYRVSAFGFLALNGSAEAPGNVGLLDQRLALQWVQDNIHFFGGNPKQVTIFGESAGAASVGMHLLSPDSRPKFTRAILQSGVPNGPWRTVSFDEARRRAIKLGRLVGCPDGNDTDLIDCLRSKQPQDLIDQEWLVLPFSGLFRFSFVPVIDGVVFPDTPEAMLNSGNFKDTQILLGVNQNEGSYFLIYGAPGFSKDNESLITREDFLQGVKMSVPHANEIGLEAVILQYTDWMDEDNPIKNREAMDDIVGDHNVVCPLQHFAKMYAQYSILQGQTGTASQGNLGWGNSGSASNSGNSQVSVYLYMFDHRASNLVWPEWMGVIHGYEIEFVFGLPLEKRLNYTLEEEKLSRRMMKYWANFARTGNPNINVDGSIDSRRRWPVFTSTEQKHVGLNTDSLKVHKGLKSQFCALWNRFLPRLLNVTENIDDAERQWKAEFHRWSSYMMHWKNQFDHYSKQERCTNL
The nature of data set [7]: Effective permeability by PAMPA-BBB penetration assay. It is filed as ADME. The conditions noted are these: read-out: Peff.
The target in data set [8] is T1, Cholinesterase (Equus caballus, UniProt P81908). Description: Inhibition of equine serum BChE pre-incubated for 5 mins before butyrylthiocholine iodide substrate addition and measured after 2 mins.
T1 sequence (P81908 whole entry): as the sequence (P81908 whole entry) above
Data set [9] has as its system SH-SY5Y. The experiment in a line: Toxicity in human SH-SY5Y cells assessed as reduction in cell viability at 2.5 to 50 uM incubated for 24 hrs by MTT assay. The format is cell-based.
For data set [10], the system named is PC-12. The experiment in a line: Toxicity in rat PC12 cells assessed as reduction in cell viability at 2.5 to 50 uM incubated for 24 hrs by MTT assay. Particulars: pc-12, 24 h. The format is cell-based.
The nature of data set [11]: Selectivity index, ratio of inhibition of Electrophorus electricus AChE pre-incubated for 5 mins before acetylthiocholine iodide substrate addition and measured after 2 mins to IC50 for inhibition of equine serum BChE pre-incubated for 5 mins before butyrylthiocholine iodide substrate addition and measured after 2 mins.
Another data set deals with HepG2. The experiment in a line: Toxicity in human HepG2 cells assessed as toxic dose for reduction in cell viability incubated for 24 hrs by MTT assay. It is filed as cell-based. The conditions noted are these: hepg2, 24 h.
The subject of data set [12] is Mus musculus. Description: Improvement in cognition in ICR mouse model of scopolamine-induced cognition-impairment assessed as improvement in escape latency at 15 to 30 mg/kg, po dosed 30 mins before scopolamine challenge for 10 days by Morris water maze test. It is filed as functional, organism-based.
Data set [13] can be described thus: Hepatotoxicity in ICR mouse assessed as induction of pericentral necrosis at 30 mg/kg, ig measured after 8 to 36 hrs post dose by immunohistochemical staining assay. Particulars: in vivo, po. The format is toxicity, organism-based.
Data set [14] relates to SH-SY5Y. The experiment in a line: Toxicity in human SH-SY5Y cells assessed as reduction in cell viability at 100 uM incubated for 24 hrs by MTT assay relative to control. It is filed as cell-based.
A short description of data set [15]: Toxicity in ICR mouse model of scopolamine-induced cognition-impairment assessed as induction of behavioral abnormities at 15 to 30 mg/kg, po dosed 30 mins before scopolamine challenge for 10 days. It is filed as organism-based. Particulars: in vivo.
The nature of data set [16]: Hepatotoxicity in ICR mouse assessed as induction of fatty degeneration of hepatocytes of surrounding intermediate and periportal zones at 30 mg/kg, ig measured after 8 to 36 hrs post dose by immunohistochemical staining assay. The format is toxicity, organism-based. Particulars: in vivo, po.
The nature of data set [17]: Toxicity in ICR mouse model of scopolamine-induced cognition-impairment assessed as induction of death at 15 to 30 mg/kg, po dosed 30 mins before scopolamine challenge for 10 days. The format is organism-based. The conditions noted are these: in vivo.
Another data set relates to L02. Description: Toxicity in human L02 cells assessed as reduction in cell viability at 2.5 to 100 uM incubated for 24 hrs by MTT assay. It is filed as cell-based. The conditions noted are these: l02, 24 h.
A short description of data set [18]: Toxicity in ICR mouse assessed as effect on body weight at 1 mg/kg, ig. The conditions noted are these: in vivo, po. The format is organism-based.
The nature of data set [19]: Toxicity in ICR mouse model of Abeta(1-42)-induced cognition-impairment assessed as effect on body weight at 15 mg/kg, po dosed from days 3 to 14. Particulars: in vivo. It is filed as organism-based.
The test system of data set [20] is PC-12. Description: Toxicity in rat PC12 cells assessed as reduction in cell viability at 100 uM incubated for 24 hrs by MTT assay relative to control. The format is cell-based. Particulars: pc-12, 24 h.
Another data set deals with Acetylcholinesterase (Electrophorus electricus, UniProt O42275). Description: Inhibition of Electrophorus electricus AChE pre-incubated for 5 mins before acetylthiocholine iodide substrate addition and measured after 2 mins.
Sequence of Acetylcholinesterase (O42275 whole entry): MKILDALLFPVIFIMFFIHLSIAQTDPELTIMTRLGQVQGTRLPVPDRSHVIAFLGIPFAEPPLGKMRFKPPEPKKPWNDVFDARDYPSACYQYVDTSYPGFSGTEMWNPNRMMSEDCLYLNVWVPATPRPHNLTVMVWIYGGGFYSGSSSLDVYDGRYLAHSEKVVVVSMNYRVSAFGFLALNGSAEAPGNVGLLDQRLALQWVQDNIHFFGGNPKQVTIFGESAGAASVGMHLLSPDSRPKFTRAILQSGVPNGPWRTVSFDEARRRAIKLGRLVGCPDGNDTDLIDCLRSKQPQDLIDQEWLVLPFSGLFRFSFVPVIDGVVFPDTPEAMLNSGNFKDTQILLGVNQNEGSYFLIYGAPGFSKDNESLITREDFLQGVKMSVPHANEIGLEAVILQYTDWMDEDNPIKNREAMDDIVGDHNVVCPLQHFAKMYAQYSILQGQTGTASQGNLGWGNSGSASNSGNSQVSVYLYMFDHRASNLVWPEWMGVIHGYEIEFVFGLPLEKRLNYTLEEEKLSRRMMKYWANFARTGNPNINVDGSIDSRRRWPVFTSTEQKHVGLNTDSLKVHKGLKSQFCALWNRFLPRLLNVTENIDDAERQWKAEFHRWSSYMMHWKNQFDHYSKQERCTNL
Data set [21] is described as follows: Half life in human liver microsomes at 1 uM in presence of NADPH by LC-MS/MS analysis. It is filed as ADME, Microsome.
The target in data set [22] is Cholinesterase (Homo sapiens, UniProt P06276). Description: Inhibition of human BChE pre-incubated for 5 mins before butyrylthiocholine iodide substrate addition and measured after 2 mins.
Sequence of Cholinesterase (Homo sapiens, UniProt P06276) (P06276 whole entry): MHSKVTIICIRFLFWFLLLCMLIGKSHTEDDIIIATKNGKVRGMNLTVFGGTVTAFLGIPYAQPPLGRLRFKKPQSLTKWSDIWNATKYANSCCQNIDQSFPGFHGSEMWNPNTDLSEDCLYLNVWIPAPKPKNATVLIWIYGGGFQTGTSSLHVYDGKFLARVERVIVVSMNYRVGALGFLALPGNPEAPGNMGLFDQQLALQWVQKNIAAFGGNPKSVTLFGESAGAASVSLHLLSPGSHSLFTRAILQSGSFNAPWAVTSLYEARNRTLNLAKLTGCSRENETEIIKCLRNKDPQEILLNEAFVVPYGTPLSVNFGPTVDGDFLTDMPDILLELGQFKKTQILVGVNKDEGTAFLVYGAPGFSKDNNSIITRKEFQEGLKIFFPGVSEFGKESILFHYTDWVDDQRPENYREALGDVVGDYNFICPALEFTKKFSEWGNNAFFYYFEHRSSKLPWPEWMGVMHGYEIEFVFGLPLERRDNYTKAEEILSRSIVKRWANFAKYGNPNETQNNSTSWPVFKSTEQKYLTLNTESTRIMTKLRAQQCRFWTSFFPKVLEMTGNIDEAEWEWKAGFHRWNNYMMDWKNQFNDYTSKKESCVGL
Data set [23] has as its system SH-SY5Y. The experiment in a line: Neuroprotection against Abeta(1-42)-induced cytotoxicity in human SH-SY5Y cells assessed as increase in cell viability incubated for 1 hr before Abeta(1-42) challenge and measured after 24 hrs by MTT assay. It is filed as functional, cell-based.
Data set [24] in a line: Toxicity in ICR mouse assessed as induction of abnormal behaviors at 1 mg/kg, ig. It is filed as organism-based. Particulars: in vivo, po.
Data set [25] deals with Cholinesterase (Equus caballus) (UniProt P81908). Description: Noncompetitive inhibition of equine serum BChE assessed as reduction in enzymatic velocity pre-incubated for 5 mins before butyrylthiocholine iodide substrate addition and measured after 2 mins by Lineweaver-Burk plot analysis.
The test system of data set [26] is Mus musculus. Description: Improvement in cognition in ICR mouse model of scopolamine-induced cognition-impairment assessed as improvement in trajectories to platform at 15 to 30 mg/kg, po dosed 30 mins before scopolamine challenge for 10 days by Morris water maze test. The format is functional, organism-based.
The nature of data set [27]: Intrinsic clearance in human liver microsomes at 1 uM in presence of NADPH by LC-MS/MS analysis. It is filed as ADME, Microsome. The conditions noted are these: read-out: CLH.
Data set [28] in a line: Toxicity in ICR mouse assessed as induction of animal death at 1 mg/kg, ig. It is filed as organism-based. The conditions noted are these: in vivo, po.
The target in data set [29] is T1, Cholinesterase. The experiment in a line: Noncompetitive inhibition of equine serum BChE pre-incubated for 5 mins before butyrylthiocholine iodide substrate addition and measured after 2 mins by Lineweaver-Burk plot analysis.

For `COc1cc2c(cc1OC)C(=O)C(CC1CCN(Cc3ccccc3)CC1)C2` (stereo not drawn) [DONEPEZIL], the outcome with Mus musculus [1] was Active. Also, the Activity was found to be 65.23% in the data set on Mus musculus [2] and 24.08% with Mus musculus [3]. In the data set with Mus musculus [4], the Time stood at 15.3 s.

As for `COc1ccc(-c2noc(CN(C(=O)c3ccc4c(c3)OCO4)C3CCCCC3)n2)cc1`, the inhibition was 4.33% in [5] and -3.2% in data set [6].

For the compound `C[C@]12CC[C@@H]3c4ccc(O)cc4CC[C@H]3[C@@H]1CC[C@@H]2O` [ESTRADIOL], the Papp in [7] amounted to 20.5 ×10⁻⁶ cm/s.

As to `Clc1cccc(Cl)c1N=C1NCCN1` [CLONIDINE], the Papp in [7] came to 8.8 ×10⁻⁶ cm/s.

Consider `CCCN(Cc1csc(COc2ccc(C)cc2)n1)C(=O)c1ccc2c(c1)OCO2`, for which the inhibition was 54.8% in data set [5] and -0.26% in data set [6]. Besides, at Cholinesterase [8], the IC50 was found to be 14.3 µM.

For the compound `COCCN(Cc1csc(COc2ccc(C)cc2)n1)C(=O)c1ccc(OC)cc1`, the inhibition in [5] was found to be 7.17%; in [6], 5.79%.

Regarding `CN1C(C(=O)Nc2ccccn2)=C(O)c2ccccc2S1(=O)=O` [PIROXICAM], the Papp in data set [7] is 1.69 ×10⁻⁶ cm/s.

For the compound `Cc1ccc2cc(NC(=O)Cn3c(-c4nonc4N)nc4ccccc43)ccc2n1`, the inhibition in data set [5] was 96.5%; in data set [6], 15.3%; in data set [25], “Dose-dependent effect”. In addition, the Activity entry in the data set on SH-SY5Y [9] is “Non-Toxic”; in the data set on PC-12 [10], “Non-Toxic”; in the data set with HepG2 it was above 20 µM; in the data set on Mus musculus [12], “Dose-dependent effect”; in [13] it was “Non-Toxic”; in the data set with SH-SY5Y [14], 50%. Also, the Activity is given as 63.44% with Mus musculus [2]; “Non-Toxic” in data set [15]; 40.56% with Mus musculus [3]; “Non-Toxic” in [16]; “Non-Toxic” in data set [17]; “Non-Toxic” with L02. Further, the Activity entry in data set [18] is “Non-Toxic”; in [19], “Non-Toxic”; with PC-12 [20] it was 50%; in the data set with SH-SY5Y [23] it was “Dose-dependent effect”; in data set [24] it was “Non-Toxic”; with Mus musculus [26] it was “Dose-dependent effect”. In data set [28], the Activity result is “Non-Toxic”. Moreover, in data set [11], the Ratio IC50 is above 500. In addition, the IC50 on Cholinesterase [8] is 0.18 µM; on Acetylcholinesterase it was above 100 µM; at Cholinesterase [22] it was 0.32 µM. Also, the outcome in the data set on Mus musculus [1] was Active. The half-life at 1 µM in [21] came to 41.9 min. The Papp in [7] was 7.84 ×10⁻⁶ cm/s. The Time with Mus musculus [4] came out at 8.83 s. Also, in data set [27], the CLint scaled at 1 µM was 41.5 mL/min/kg. Further, the Ki on Cholinesterase [29] came out at 0.232 µM.

With `COc1cc2c(cc1NC(=O)C(=O)c1c(-c3ccccc3)[nH]c3ccccc13)oc1ccccc12`, the inhibition was 0.73% in data set [5] and -4.57% in [6].

`COc1ccc(C2=C(Nc3ccc4oc5ccccc5c4c3)c3ccccc3C2=O)cc1`: the inhibition in data set [5] was determined as 4.03%; in data set [6], 42.6%.

Regarding `CC(=O)[C@H]1CC[C@H]2[C@@H]3CCC4=CC(=O)CC[C@]4(C)[C@H]3CC[C@]12C` [PROGESTERONE], the Papp in [7] came to 15.5 ×10⁻⁶ cm/s.

On to `C[C@]12CCC(=O)C=C1CC[C@@H]1[C@@H]2C(=O)C[C@]2(C)C(=O)CC[C@@H]12` [ADRENOTERONE], for which the Papp in data set [7] was determined as 6.05 ×10⁻⁶ cm/s.

For the compound `CN(C)CCCN1c2ccccc2Sc2ccc(Cl)cc21` [CHLORPROMAZINE], the Papp in data set [7] was determined as 12.4 ×10⁻⁶ cm/s.

Turning to `CN(CCc1noc(-c2cc3ccccc3[nH]2)n1)C(=O)c1ccc(C(C)(C)C)cc1`, the values for the inhibition in data set [5] and in data set [6] were 20.3% and 51.6%, respectively.

Consider `O=C(c1ccc(F)cc1)C1CCN(CCn2c(=O)[nH]c3ccccc3c2=O)CC1` [KETANSERIN], for which, in data set [21], the half-life at 1 µM was 31.4 min. Moreover, the CLint scaled at 1 µM in data set [27] came to 55.3 mL/min/kg.

Turning to `O=C(c1ccc(C(F)(F)F)cc1)N(CCc1nc(-c2ccc(C(F)(F)F)cc2)no1)Cc1ccco1`, the inhibition in [6] is -0.61%.

On to `COc1ccc(-c2cccc(-n3cncc3C(=O)N3Cc4ccccc4C3)c2)cc1OC`, for which the inhibition in data set [5] amounted to 53.4%; in data set [6] it was 6.29%. In addition, the IC50 at Cholinesterase [8] worked out at 17.3 µM.

For the compound `Cc1ccc(-c2nc3ccccc3o2)cc1NCc1cc(Cc2ccccc2)ccc1O`, the inhibition is 8.49% in data set [5] and 6.25% in [6].

With `NCCc1ccc(O)c(O)c1` [DOPAMINE], the Papp in data set [7] was 3.3 ×10⁻⁶ cm/s.

`CN(CCc1noc(-c2cc3ccccc3[nH]2)n1)C(=O)c1ccc(N(C)C)cc1`: the inhibition in data set [5] stood at 35.4%; in data set [6], 39.4%.

For `Cc1ccc(OCc2nc(CN(CC(C)C)C(=O)c3ccc4c(c3)OCO4)cs2)cc1`, the inhibition in [5] was 54%; in data set [6], -6.37%. In addition, the values for the IC50 at Cholinesterase [8] and on Acetylcholinesterase were 17.7 µM and 11 µM, respectively.

On to `CCc1noc(-c2cnc3nc(C)ccc3c2Nc2ccc3c(c2)OCCO3)n1`, for which the inhibition in data set [5] worked out at 1.63%; in data set [6] it was 50.6%. The compound further yielded a half-maximal inhibitory concentration (IC50) against Acetylcholinesterase of 1.56 µM.
